In US20260217767A1, “NOVEL A4B7 THIOETHER PEPTIDE DIMER ANTAGONISTS” (Protagonist Therapeutics, Inc., priority 2014, published 2026):
Where a SMILES comes first, the peptide text is derived from it.

How the values were obtained:
[1] = Simulated Intestinal Fluid (SIF) Stability Assay; assay type: in vitro ADME; conditions: pig, 37° C., monomers, Table 6; for half-life at 22 μM: simulated intestinal fluid (SIF) with 1% porcine pancreatin, pH 6.5, porcine pancreatin; for half-life: porcine pancreatin
Method in brief: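 Percent peptide remaining over time was measured by LC-MS/MS as the peak-area ratio to internal standard, and a first-order decay fit gave half-life. Digests contained 22 μM peptide and 1% pancreatin in pH 6.5 FaSSIF buffer at 37° C. Aliquots were quenched in organic solvent with formic acid.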

rh integrin α4β7 = target: T1, rh integrin α4β7 (Homo sapiens, UniProt P13612+P26010); test: α4β7-MAdCAM Competition ELISA; assay type: binding; conditions: thioether monomer peptides, Table 6; read-out: ELISA A4B7
T1 construct: purchased R&D Systems 5397-A30
T1 sequence (P13612 34-977 limits assumed): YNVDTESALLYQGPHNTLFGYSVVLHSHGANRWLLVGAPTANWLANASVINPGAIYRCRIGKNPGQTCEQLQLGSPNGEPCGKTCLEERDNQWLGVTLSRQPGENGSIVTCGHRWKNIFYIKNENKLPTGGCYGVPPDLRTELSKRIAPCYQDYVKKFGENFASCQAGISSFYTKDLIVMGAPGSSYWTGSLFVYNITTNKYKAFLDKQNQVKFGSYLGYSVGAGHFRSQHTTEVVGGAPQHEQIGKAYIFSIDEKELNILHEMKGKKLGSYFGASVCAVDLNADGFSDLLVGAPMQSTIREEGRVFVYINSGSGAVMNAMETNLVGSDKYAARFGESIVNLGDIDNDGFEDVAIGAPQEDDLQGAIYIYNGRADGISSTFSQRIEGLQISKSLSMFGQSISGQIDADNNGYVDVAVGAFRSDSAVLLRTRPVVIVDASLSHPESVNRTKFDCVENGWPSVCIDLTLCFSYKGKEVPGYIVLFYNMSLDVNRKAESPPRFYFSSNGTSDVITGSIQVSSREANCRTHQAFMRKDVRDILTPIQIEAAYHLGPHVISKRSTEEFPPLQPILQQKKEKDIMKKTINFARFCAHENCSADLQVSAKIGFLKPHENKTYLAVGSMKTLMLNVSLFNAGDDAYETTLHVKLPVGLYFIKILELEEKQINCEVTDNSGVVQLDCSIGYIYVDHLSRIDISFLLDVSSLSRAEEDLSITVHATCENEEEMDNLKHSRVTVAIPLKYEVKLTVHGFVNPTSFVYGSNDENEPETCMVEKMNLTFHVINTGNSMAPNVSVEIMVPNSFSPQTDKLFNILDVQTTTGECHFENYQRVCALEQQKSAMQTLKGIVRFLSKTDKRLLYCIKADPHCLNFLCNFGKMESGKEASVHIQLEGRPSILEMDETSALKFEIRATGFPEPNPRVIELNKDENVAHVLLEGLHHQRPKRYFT
T1 sequence (P26010 20-723 limits assumed): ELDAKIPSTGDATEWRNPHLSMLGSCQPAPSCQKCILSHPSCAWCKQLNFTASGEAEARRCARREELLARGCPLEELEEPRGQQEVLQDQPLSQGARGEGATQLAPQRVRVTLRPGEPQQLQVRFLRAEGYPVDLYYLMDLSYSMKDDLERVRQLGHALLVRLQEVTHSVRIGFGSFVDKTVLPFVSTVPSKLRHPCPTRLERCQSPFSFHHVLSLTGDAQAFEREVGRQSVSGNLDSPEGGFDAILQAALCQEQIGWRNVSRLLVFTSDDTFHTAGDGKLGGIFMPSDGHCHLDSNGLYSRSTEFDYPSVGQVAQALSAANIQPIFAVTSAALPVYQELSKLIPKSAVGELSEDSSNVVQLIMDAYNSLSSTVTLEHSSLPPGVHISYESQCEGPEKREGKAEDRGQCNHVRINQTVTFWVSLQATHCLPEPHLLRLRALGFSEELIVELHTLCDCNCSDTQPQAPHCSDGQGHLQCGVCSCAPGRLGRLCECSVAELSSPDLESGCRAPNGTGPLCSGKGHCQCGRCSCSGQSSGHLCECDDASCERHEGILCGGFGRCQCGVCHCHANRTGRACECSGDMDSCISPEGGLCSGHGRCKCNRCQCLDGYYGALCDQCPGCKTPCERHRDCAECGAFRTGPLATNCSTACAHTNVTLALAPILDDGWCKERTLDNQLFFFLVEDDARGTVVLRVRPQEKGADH
Description: α4β7-MAdCAM Competition ELISA A nickel coated plate (Pierce #15442) was coated with rh integrin α4β[…] Systems #5397-A30) at 800 ng/well and incubated at room temperature with shaking for 1 hr. The solution was then removed by shaking and blocked with assay buffer (50 mM Tris-HCl pH7.6, 150 mM NaCl, 1 mM MnCl2 or MgCl2, 0.05% Tween-20 and 0.5% BSA) at 250 ul/well. The plate was then incubated at room temperature for 1 hr. Each well was washed 3 times with wash buffer (50 mM Tris-HCl pH7.6, 100 mM NaCl, 1 mM MnCl2 or MgCl2, 0.05% Tween-20). To each well was added 25 ul of a serial dilution (3-fold dilutions in assay buffer) of peptides starting at 20 μM. 25 ul of recombinant human MAdCAM-1 (R&D Systems #6056-MC) was then added to each well at a fixed concentration 20 nM. The final starting peptide concentration was 10 μM, and the final MAdCAM-1 concentration was 10 nM. The plates were then incubated at room temperature for 1 hr to reach binding equilibrium. The wells were then washed three times with wash buffer. 50 ul of mouse anti-human IgG1-HRP (Invitrogen #A10648) diluted in 1:2000 in assay buffer was then added to each well. The wells were incubated at room temperature for 45 min with shaking. The wells were then washed 3 times with wash buffer. 100 ul of TMB were then added to each well and closely observe during development time. The reaction was stopped with 2N H2SO4 and absorbance was read at 450 nm.

## CC(C)C[C@@H]1NC(=O)[C@H]([C@@H](C)O)NC(=O)[C@H](CC(=O)O)NC(=O)[C@H](CO)NC(=O)[C@H](CCCNC(=N)N)N(C)C(=O)c2ccccc2CSC(C)(C)[C@@H](C(=O)N[C@@H](Cc2ccccc2)C(=O)N[C@@H](CCC(=O)O)CC(=O)N[C@H](CCCCN)C(N)=O)NC1=O [compound 73] (HELM PEPTIDE1{[meR].S.D.T.L.[Pen].F.[O=C(O)CC[C@@H](CC(=O)[*:2])N[*:1]].[dK].[am]}|CHEM1{[O=C(c1ccccc1C[*:2])[*:1]]}$PEPTIDE1,CHEM1,1:R1-1:R1|PEPTIDE1,CHEM1,6:R3-1:R2$$$V2.0)
[1]
  half-life at 22 μM: > 180 min
Rh integrin α4β7
  IC50: < 0.025 µM

## CC(C)C[C@@H]1NC(=O)[C@H]([C@@H](C)O)NC(=O)[C@H](CC(=O)O)NC(=O)[C@H](CO)NC(=O)[C@H](CCCNC(=N)N)N(C)C(=O)C(C)SC[C@@H](C(=O)N[C@@H](Cc2c[nH]c3ccccc23)C(=O)N[C@H](CCCCN)C(N)=O)NC1=O (single isomer, unassigned) [compound 51]
[1]
  half-life at 22 μM: 6 min
Rh integrin α4β7
  IC50: 0.025 to 0.1 µM

## CC(C)C[C@@H]1NC(=O)[C@H]([C@@H](C)O)NC(=O)[C@H](CC(=O)O)NC(=O)[C@H](CO)NC(=O)[C@H](CCCNC(=N)N)N(C)C(=O)CCSCC[C@@H](C(=O)N[C@@H](Cc2c[nH]c3ccccc23)C(=O)N[C@H](CCCCN)C(N)=O)NC1=O [compound 57]
[1]
  half-life: < 20 min
Rh integrin α4β7
  IC50: 0.1 to 1 µM

## CC(C)C[C@@H]1NC(=O)[C@H]([C@@H](C)O)NC(=O)[C@H](CC(=O)O)NC(=O)[C@H](CO)NC(=O)[C@H](CCCNC(=N)N)N(C)C(=O)c2ccccc2CSC(C)(C)[C@@H](C(=O)N[C@@H](Cc2c[nH]c3ccccc23)C(=O)N[C@@H](CCC(=O)O)CC(=O)N[C@H](CCCCN)C(N)=O)NC1=O [compound 61] (HELM PEPTIDE1{[meR].S.D.T.L.[Pen].W.[O=C(O)CC[C@@H](CC(=O)[*:2])N[*:1]].[dK].[am]}|CHEM1{[O=C(c1ccccc1C[*:2])[*:1]]}$PEPTIDE1,CHEM1,1:R1-1:R1|PEPTIDE1,CHEM1,6:R3-1:R2$$$V2.0)
[1]
  half-life at 22 μM: > 180 min
Rh integrin α4β7
  IC50: < 0.025 µM

## CC(C)C[C@@H]1NC(=O)[C@H]([C@@H](C)O)NC(=O)[C@H](CC(=O)O)NC(=O)[C@H](CO)NC(=O)[C@H](CCCNC(=N)N)NC(=O)c2ccccc2CSC[C@@H](C(=O)N[C@@H](Cc2c[nH]c3ccccc23)C(=O)N[C@H](CCCCN)C(N)=O)NC1=O [compound 59]
[1]
  half-life at 22 μM: < 20 min
Rh integrin α4β7
  IC50: 0.1 to 1 µM

## CC(C)C[C@@H]1NC(=O)[C@H]([C@@H](C)O)NC(=O)[C@H](CC(=O)O)NC(=O)[C@H](CO)NC(=O)[C@H](CCCNC(=N)N)N(C)C(=O)c2ccccc2CSCC[C@@H](C(=O)N[C@@H](Cc2c[nH]c3ccccc23)C(=O)N[C@@H](CCC(=O)O)C(=O)N[C@H](CCCCN)C(N)=O)NC1=O [compound 67] (HELM PEPTIDE1{[meR].S.D.T.L.[O=C([C@H](CCS[*:3])N[*:1])[*:2]].W.E.[dK].[am]}|CHEM1{[O=C(c1ccccc1C[*:2])[*:1]]}$PEPTIDE1,CHEM1,1:R1-1:R1|PEPTIDE1,CHEM1,6:R3-1:R2$$$V2.0)
[1]
  half-life: < 20 min
Rh integrin α4β7
  IC50: < 0.025 µM

## CC(C)C[C@@H]1NC(=O)[C@H]([C@@H](C)O)NC(=O)[C@H](CC(=O)O)NC(=O)[C@H](CO)NC(=O)[C@H](CCCNC(=N)N)N(C)C(=O)c2ccccc2CSC[C@H](C(=O)N[C@@H](Cc2c[nH]c3ccccc23)C(=O)N[C@@H](CCC(=O)O)CC(=O)N[C@H](CCCCN)C(N)=O)NC1=O [compound 66] (HELM PEPTIDE1{[meR].S.D.T.L.[dC].W.[O=C(O)CC[C@@H](CC(=O)[*:2])N[*:1]].[dK].[am]}|CHEM1{[O=C(c1ccccc1C[*:2])[*:1]]}$PEPTIDE1,CHEM1,1:R1-1:R1|PEPTIDE1,CHEM1,6:R3-1:R2$$$V2.0)
[1]
  half-life: > 180 min
Rh integrin α4β7
  IC50: 0.025 to 0.1 µM
